Laboratory results taken from US11738022B2, “Methods for inducing pupil dilation” (THE REGENTS OF THE UNIVERSITY OF COLORADO, A BODY CORPORATE, priority 2017, dated 2023).

Tests used:
[1] = test system: iris; settings: men taking tamsulosin, 10 retrospective and prospective studies; cited from earlier work
[2] = test system: pupil; assay: Pupil dilation measured with Neuroptics pupillometer after α-2 agonist pre-treatment and/or phenylephrine; format: in vivo, human; settings: for Pupil size, Treated eye / Surgical Work area, Treated eye / Pupil size, Non-treated eye / Surgical Work area, Non-treated eye: photopic conditions (1258.925 lux) after dilation with phenylephrine 10%; for Pupil size, Non-treated eye / Surgical Work area, Non-treated eye: eye without pre-treatment
Description: Dilation medication used was Phenylephrine hydrochloride 10% (Akorn, Inc). Pupillometer used was a Neuroptics DP-2000 Binocular Pupillometer).
Dilation using phenylephrine hydrochloride 10% was conducted in both eyes of the test subject to use as a control against the other compounds being tested.
After this, dilation using phenylephrine hydrochloride 2.5% or phenylephrine hydrochloride 10% was conducted to investigate the effects of the compound on pupil dilation.
Apracionidine 0.5% was administered in the right eye of the test subject three (3) times a day for 4 days. After this, dilation using phenylephrine hydrochloride 10% was conducted to investigate the effects of the compound on pupil dilation.
After this, dilation using phenylephrine hydrochloride 10% was conducted to investigate the effects of the compound on pupil dilation.
A washout period of multiple months was undertaken in between each experiment.
Pupil measurements were obtained using a Neuroptics pupillometer. Parameters were as follows: Scotopic conditions for 1 second, followed by photopic conditions for 4 seconds (1258.925 lux), followed by scotopic conditions for 10 seconds. This allowed for investigation of scotopic pupil size, photopic pupil size, and scotopic pupil size recovery after the light stimulus concluded.
The pupils of the subject's pretreated right eye and untreated control left eye were then measured under both scotopic and photopic conditions for baseline measurements (FIG. 6A). Photopic conditions consisted of a 4 second window where a light was shining in both eyes simultaneously. […]
The experiment was repeated at a higher dosage wherein the subject was administered a second ophthalmic formulation containing 10% phenylephrine to both eyes. 30 minutes after instillation of 10% phenylephrine, the pupils of the subject were then measured under both scotopic and photopic conditions (FIG. 6C). […] Because the area of a circle is dependent on the radius squared (area of a circle=πr^2), the increase in area that is created from a increasing the pupil dilation size is not linear.
The results were then compared.

[3] = test system: α receptors (α2:α1); settings: affinity ratio; cited from earlier work
[4] = after dilation with phenylephrine hydrochloride 10%
[5] = after pre-treatment of right eye only, 3 times a day for 4 days, before phenylephrine
[6] = after pre-treatment of right eye only, 3 times a day for 4 days, before phenylephrine, left eye not treated
[7] = dilation pre and post treatment with α 2 agonist: treated eye vs control measurements of same eye
[8] = non-treated eye dilation compared to treated eye dilation
[9] = right eye pre-treated 3 times a day for 4 days, then phenylephrine 10% both eyes
[10] = right eye pre-treated 3 times a day for 4 days, then phenylephrine 10% both eyes, left eye not pre-treated

CCOc1ccccc1OCCN[C@H](C)Cc1ccc(OC)c(S(N)(=O)=O)c1 [tamsulosin]
risk of IFIS [1]: up to 90%

Cc1cccc([C@H](C)c2cnc[nH]2)c1C [Dexmedetomidine, dexmedetomidine]
increase of surgical work area compared to the pre-treatment control dilation amount in the same eye [2, 4]: +220%
CH LStim Ave [2, 5]: 64%
CH RPupil Ave [2, 5]: 64%
CH RStim Ave [2, 5]: 64%
CH Right [2, 5]: 64%
CLAT LStim Ave [2, 5]: 0.36 s
CLAT RPupil Ave [2, 5]: 0.38 s
CLAT RStim Ave [2, 5]: 0.36 s
CLAT Right [2, 5]: 0.38 s
DELTA LStim Ave [2, 5]: 4.01 mm
DELTA RPupil Ave [2, 5]: 4.19 mm
DELTA RStim Ave [2, 5]: 4.01 mm
DV LStim Ave [2, 5]: 0.95 mm/s
DV RPupil Ave [2, 5]: 0.96 mm/s
DV RStim Ave [2, 5]: 0.95 mm/s
DV Right [2, 5]: 0.96 mm/s
MCV LStim Ave [2, 5]: 5.42 mm/s
MCV RPupil Ave [2, 5]: 5.84 mm/s
MCV RStim Ave [2, 5]: 5.42 mm/s
Max LStim Ave [2, 5]: 6.30 mm
Max RStim Ave [2, 5]: 6.30 mm
Max Right [2, 5]: 6.57 mm
Min LStim Ave [2, 5]: 2.29 mm
Min RPupil Ave [2, 5]: 2.38 mm
Min RStim Ave [2, 5]: 2.29 mm
Min Right [2, 5]: 2.38 mm
CH LPupil Ave [2, 6]: 64%
CH Left [2, 6]: 64%
CLAT LPupil Ave [2, 6]: 0.34 s
CLAT Left [2, 6]: 0.34 s
DELTA Left [2, 6]: 3.83 mm
DV Left [2, 6]: 0.94 mm/s
MCV Left [2, 6]: 4.99 mm/s
Max Left [2, 6]: 6.03 mm
Min Left [2, 6]: 2.20 mm
Pupil size change (%) [2, 7]: +78.83%
Surgical work area change (%) [2, 7]: +219.8%
Pupil size change (%) [2, 8]: +74.46%
Surgical work area (%) [2, 8]: +204.4%
Pupil size, Treated eye [2]: 6.42 mm
Surgical Work area, Treated eye [2]: 32.35 mm^2
Pupil size, Non-treated eye [2]: 3.68 mm
Surgical Work area, Non-treated eye [2]: 10.63 mm^2
CH LStim Ave [2, 9]: 46%
CH RPupil Ave [2, 9]: 34%
CH RStim Ave [2, 9]: 46%
CH Right [2, 9]: 34%
CLAT LStim Ave [2, 9]: 0.20 s
CLAT RPupil Ave [2, 9]: 0.16 s
CLAT RStim Ave [2, 9]: 0.20 s
CLAT Right [2, 9]: 0.16 s
DELTA LStim Ave [2, 9]: 4.22 mm
DELTA RPupil Ave [2, 9]: 3.31 mm
DELTA RStim Ave [2, 9]: 4.22 mm
DV LStim Ave [2, 9]: 0.94 mm/s
DV RPupil Ave [2, 9]: 0.80 mm/s
DV RStim Ave [2, 9]: 0.94 mm/s
DV Right [2, 9]: 0.80 mm/s
MCV LStim Ave [2, 9]: 3.24 mm/s
MCV RPupil Ave [2, 9]: 2.49 mm/s
MCV RStim Ave [2, 9]: 3.24 mm/s
Max LStim Ave [2, 9]: 9.27 mm
Max RStim Ave [2, 9]: 9.27 mm
Max Right [2, 9]: 9.73 mm
Min LStim Ave [2, 9]: 5.05 mm
Min RPupil Ave [2, 9]: 6.42 mm
Min RStim Ave [2, 9]: 5.05 mm
Min Right [2, 9]: 6.42 mm
CH LPupil Ave [2, 10]: 58%
CH Left [2, 10]: 58%
CLAT LPupil Ave [2, 10]: 0.24 s
CLAT Left [2, 10]: 0.24 s
DELTA Left [2, 10]: 5.13 mm
DV Left [2, 10]: 1.08 mm/s
MCV Left [2, 10]: 4.00 mm/s
Max Left [2, 10]: 8.81 mm
Min Left [2, 10]: 3.68 mm
α2:α1 affinity [3]: 1620

Nc1cc(Cl)c(N=C2NCCN2)c(Cl)c1 [Apraclonidine, apraclonidine]
effect of pre-treatment on dilation [2, 4]: hindered dilation
CH LStim Ave [2, 5]: 62%
CH RPupil Ave [2, 5]: 61%
CH RStim Ave [2, 5]: 62%
CH Right [2, 5]: 61%
CLAT LStim Ave [2, 5]: 0.21 s
CLAT RPupil Ave [2, 5]: 0.21 s
CLAT RStim Ave [2, 5]: 0.21 s
CLAT Right [2, 5]: 0.21 s
DELTA LStim Ave [2, 5]: 4.25 mm
DELTA RPupil Ave [2, 5]: 4.20 mm
DELTA RStim Ave [2, 5]: 4.25 mm
DV LStim Ave [2, 5]: 1.08 mm/s
DV RPupil Ave [2, 5]: 1.19 mm/s
DV RStim Ave [2, 5]: 1.08 mm/s
DV Right [2, 5]: 1.19 mm/s
MCV LStim Ave [2, 5]: 5.93 mm/s
MCV RPupil Ave [2, 5]: 6.01 mm/s
MCV RStim Ave [2, 5]: 5.93 mm/s
Max LStim Ave [2, 5]: 6.87 mm
Max RStim Ave [2, 5]: 6.87 mm
Max Right [2, 5]: 6.91 mm
Min LStim Ave [2, 5]: 2.62 mm
Min RPupil Ave [2, 5]: 2.71 mm
Min RStim Ave [2, 5]: 2.62 mm
Min Right [2, 5]: 2.71 mm
CH LPupil Ave [2, 6]: 63%
CH Left [2, 6]: 63%
CLAT LPupil Ave [2, 6]: 0.21 s
CLAT Left [2, 6]: 0.21 s
DELTA Left [2, 6]: 4.28 mm
DV Left [2, 6]: 0.97 mm/s
MCV Left [2, 6]: 5.85 mm/s
Max Left [2, 6]: 6.82 mm
Min Left [2, 6]: 2.54 mm
Pupil size change (%) [2, 7]: −17.83%
Surgical work area change (%) [2, 7]: −32.48%
Pupil size change (%) [2, 8]: −40.4%
Surgical work area (%) [2, 8]: −64.48%
Pupil size, Treated eye [2]: 2.95 mm
Surgical Work area, Treated eye [2]: 6.831 mm^2
Pupil size, Non-treated eye [2]: 4.95 mm
Surgical Work area, Non-treated eye [2]: 19.23 mm^2
CH LStim Ave [2, 9]: 54%
CH RPupil Ave [2, 9]: 62%
CH RStim Ave [2, 9]: 54%
CH Right [2, 9]: 62%
CLAT LStim Ave [2, 9]: 0.22 s
CLAT RPupil Ave [2, 9]: 0.21 s
CLAT RStim Ave [2, 9]: 0.22 s
CLAT Right [2, 9]: 0.21 s
DELTA LStim Ave [2, 9]: 4.59 mm
DELTA RPupil Ave [2, 9]: 4.88 mm
DELTA RStim Ave [2, 9]: 4.59 mm
DV LStim Ave [2, 9]: 1.21 mm/s
DV RPupil Ave [2, 9]: 1.18 mm/s
DV RStim Ave [2, 9]: 1.21 mm/s
DV Right [2, 9]: 1.18 mm/s
MCV LStim Ave [2, 9]: 3.80 mm/s
MCV RPupil Ave [2, 9]: 5.03 mm/s
MCV RStim Ave [2, 9]: 3.80 mm/s
Max LStim Ave [2, 9]: 8.54 mm
Max RStim Ave [2, 9]: 8.54 mm
Max Right [2, 9]: 7.83 mm
Min LStim Ave [2, 9]: 3.95 mm
Min RPupil Ave [2, 9]: 2.95 mm
Min RStim Ave [2, 9]: 3.95 mm
Min Right [2, 9]: 2.95 mm
CH LPupil Ave [2, 10]: 46%
CH Left [2, 10]: 46%
CLAT LPupil Ave [2, 10]: 0.23 s
CLAT Left [2, 10]: 0.23 s
DELTA Left [2, 10]: 4.30 mm
DV Left [2, 10]: 1.24 mm/s
MCV Left [2, 10]: 2.58 mm/s
Max Left [2, 10]: 9.25 mm
Min Left [2, 10]: 4.95 mm
α2:α1 affinity [3]: 150
